According to patent US20230357272A1, “OCTAHYDROPYRAZINODIAZANAPHTHYRIDINE DIONE COMPOUNDS” (MEDSHINE DISCOVERY INC., priority 2020, published 2023):
Where two headings read alike, the source gives them in different places.

Legend:
[1] = test system: H358 human non-small cell lung cancer cell line; experiment: Anti-tumor activity test on in vivo H358 xenograft tumor model; design: species or system Female Balb/c nude mice; conditions: for T/C / TGI: 28 days; for mean tumor volume: 28 days after administration
Excerpt: Human non-small cell lung cancer H358 was used to investigate the tumor-inhibitory effect of the compound to be tested alone in an in vivo tumor model.
Female Balb/c nude mice were subcutaneously inoculated with the H358 human non-small cell lung cancer cell line, randomly grouped on the 6th day after inoculation according to tumor size and animal body weight, and administered as described below.
Vehicle control group: The administration was started in the afternoon of the grouping day, once a day, and the vehicle (10% DMSO/60% PEG400/30% deionized water) was intragastrically administered at a dose of 0.1 mL/10 g body weight for 28 consecutive days.
Administration group: The administration was started in the afternoon of the grouping day, once a day, and 3 groups were intragastrically administered with compound 1D (10% DMSO/60% PEG400/30% deionized water) at the doses of 1 mg/kg, 3 mg/kg and 10 mg/kg body weight, respectively, for 28 consecutive days.
During the experiment, the mice were weighed twice a week, and the tumor volume was measured (tumor volume was calculated according to the formula of length×width^2/2). The tumor inhibition rate TGI (%) was calculated according to the formula TGI (%)=[(1−mean tumor volume at the end of administration of a treatment group−mean tumor volume at the time of group administration of the treatment group)/(mean tumor volume at the end of treatment of vehicle control group−mean tumor volume at the time of group administration of vehicle control group)]×100%.
The relative tumor volume was calculated as RTV=TVn/TV1×100%
Where TV1 was the tumor volume on the day of group administration, and TVn was the tumor volume on the day of measurement.
Relative tumor proliferation rate (T/C %)=RTVt/RTVc×100%
Where RTVt was the mean relative tumor volume of the treatment group, and RTVc was the mean relative tumor volume of the vehicle control group.

[2] = Pharmacokinetic study of female BALB/c nude mice (plasma and tumor); assay type: in vivo; conditions: for concentration at 1 h / concentration at 4 h / concentration at 8 h: oral, read-out: Mean drug concentration; for Kp: tumor/plasma, read-out: AUC ratio = tumor AUC0-last/plasma AUC0-last
Method: This experiment was a pharmacokinetic study of female BALB/c nude mice after oral administration of compound 1D. The experiment was divided into three groups, which were intragastrically administered with 1, 3 and 10 mg/kg of compound 1D, respectively. Animals in each group were divided into two batches, and plasma and tumor tissue samples were collected at different time points after administration. The collection time points of the plasma samples from each group of animals were: 0.083, 0.25, 0.5, 1, 2, 4, 6 and 8 hours, respectively, and the collection time points of tumor tissue samples were 1, 4 and 8 hours, respectively. At the corresponding sample collection time point after administration, plasma was collected, and tumor tissue was dissected and weighed. The plasma was stored at −80° C., and the tumor tissue was stored in a cryopreservation tube and quickly frozen in liquid nitrogen. Cross-collected plasma samples were used to calculate the mean concentration of the corresponding time points in each group for the calculation of PK parameters.

NCI-H358 cells = experiment: Anti-proliferation experiment of H358 cells (CellTiter-Glo); assay type: cell-based; conditions: Homo sapiens, 120 h, 5 days
Method: RPMI-1640 culture medium, penicillin/streptomycin antibiotics purchased from Wisent, and fetal bovine serum purchased from Biosera. CellTiter-Glo (chemiluminescence detection reagent for cell viability) reagent purchased from Promega. NCI-H358 cell line purchased from the Cell Bank of the Chinese Academy of Sciences. Nivo multi-label analyzer (PerkinElmer).
NCI-H358 cells were seeded in a white 96-well plate with 80 μL of cell suspension per well, which contained 4000 NCI-H358 cells. The cell plate was incubated overnight in a carbon dioxide incubator.
The compounds to be tested were diluted 3-fold with a row gun to the ninth concentration, that is, from 2 mM to 304 nM, and a double-duplication experiment was set up. 78 μL of culture medium was added to a middle plate, and then 2 μL of gradient diluted compound per well was transferred to the middle plate according to the corresponding position. After being thoroughly mixed, 20 μL per well was transferred to the cell plate. The concentration range of the compound transferred to the cell plate was 10 μM to 1.52 nM. The cell plate was placed in the carbon dioxide incubator for 5 days. Another cell plate was prepared, and the signal value was read as the maximum value (Max value in the equation below) on the day of administration to participate in data analysis. 25 μL of cell viability chemiluminescence detection reagent was added to each well of the cell plate, and incubated at room temperature for 10 minutes to stabilize the luminescence signal. A multi-label analyzer was used for reading.
25 μL of cell viability chemiluminescence detection reagent was added to each well of the cell plate, and incubated at room temperature for 10 minutes to stabilize the luminescence signal. A multi-label analyzer was used for reading.
Using the equation (Sample−Min)/(Max−Min)*100% to convert the raw data into inhibition rate, and the value of IC50 might be obtained by curve fitting with four parameters (obtained by “log (inhibitor) vs. response—Variable slope” mode in GraphPad Prism). Table 1 provides the inhibitory activity of the compounds of the present disclosure on the proliferation of NCI-H358 cells.

[3] = 1 mg/kg intragastric once a day
[4] = 3 mg/kg intragastric once a day
[5] = 10 mg/kg intragastric once a day
[6] = female, BALB/c nude, mouse, plasma, 1 mg/kg intragastric
[7] = female, BALB/c nude, mouse, plasma, 3 mg/kg intragastric
[8] = female, BALB/c nude, mouse, plasma, 10 mg/kg intragastric
[9] = female, BALB/c nude, mouse, tumor, 1 mg/kg intragastric
[10] = female, BALB/c nude, mouse, tumor, 3 mg/kg intragastric
[11] = female, BALB/c nude, mouse, tumor, 10 mg/kg intragastric
[12] = female, BALB/c nude, mouse, po, plasma, 1 mg/kg intragastric
[13] = female, BALB/c nude, mouse, po, plasma, 3 mg/kg intragastric
[14] = female, BALB/c nude, mouse, po, plasma, 10 mg/kg intragastric
[15] = female, BALB/c nude, mouse, po, tumor, 3 mg/kg intragastric
[16] = female, BALB/c nude, mouse, po, tumor, 10 mg/kg intragastric

concentration at 1 h [2, 6]: 22.5 nM
concentration at 4 h [2, 6]: 3.58 nM
concentration at 8 h [2, 6]: 1.22 nM
concentration at 1 h [2, 7]: 157 nM
concentration at 4 h [2, 7]: 11.5 nM
concentration at 8 h [2, 7]: 4.13 nM
concentration at 1 h [2, 8]: 285 nM
concentration at 4 h [2, 8]: 54.8 nM
concentration at 8 h [2, 8]: 30.6 nM
concentration at 1 h [2, 9]: 10.4 nM
concentration at 4 h [2, 9]: 2.04 nM
concentration at 1 h [2, 10]: 136 nM
concentration at 4 h [2, 10]: 9.78 nM
concentration at 8 h [2, 10]: 2.78 nM
concentration at 1 h [2, 11]: 203 nM
concentration at 4 h [2, 11]: 37.9 nM
concentration at 8 h [2, 11]: 20.8 nM
AUC(0-t) [2, 12]: 0.0544 µM·h
Tmax [2, 12]: 0.25 h
half-life [2, 12]: 2.57 h
Cmax ([2]; female, BALB/c nude, mouse, po, plasma, 1 mg/kg intragastric, read-out: Cmax): 40.8 nM
AUC(0-t) [2, 13]: 0.287 µM·h
Tmax [2, 13]: 0.5 h
half-life [2, 13]: 2.2 h
Cmax ([2]; female, BALB/c nude, mouse, po, plasma, 3 mg/kg intragastric, read-out: Cmax): 191 nM
AUC(0-t) [2, 14]: 0.84 µM·h
Tmax [2, 14]: 0.25 h
half-life [2, 14]: 1.99 h
Cmax ([2]; female, BALB/c nude, mouse, po, plasma, 10 mg/kg intragastric, read-out: Cmax): 348 nM
Tmax [2, 15]: 1 h
half-life [2, 15]: 1.28 h
Tmax [2, 16]: 1 h
half-life [2, 16]: 2.19 h
Kp ([2]; female, BALB/c nude, mouse, po, 3 mg/kg intragastric): 0.815
Kp ([2]; female, BALB/c nude, mouse, po, 10 mg/kg intragastric): 0.608
Tlast ([2]; plasma, 1 mg/kg intragastric): 8.00 h
Tlast ([2]; plasma, 3 mg/kg intragastric): 8.00 h
Tlast ([2]; plasma, 10 mg/kg intragastric): 8.00 h
AUC0-last ([2]; tumor, 3 mg/kg intragastric): 234 nmol·h/kg
Cmax ([2]; tumor, 3 mg/kg intragastric): 136 nmol/kg
Tlast ([2]; tumor, 3 mg/kg intragastric): 8.00 h
AUC0-last ([2]; tumor, 10 mg/kg intragastric): 511 nmol·h/kg
Cmax ([2]; tumor, 10 mg/kg intragastric): 203 nmol/kg
Tlast ([2]; tumor, 10 mg/kg intragastric): 8.00 h
IC50 (NCI-H358 cells): 0.917 nM
Structure (SMILES): C=CC(=O)N1CCN2c3c(c(=O)n(-c4c(C)ccnc4C(C)C)c4c(=O)n(-c5c(N)c(Cl)cc(Cl)c5F)c(C(F)(F)F)cc34)OCC[C@H]2C1 [Compound 1D]
T/C [1, 3]: 51.35%
TGI [1, 3]: 58.78%
mean tumor volume [1, 3]: 341.36 mm^3
T/C [1, 4]: 27.59%
TGI [1, 4]: 84.17%
mean tumor volume [1, 4]: 199.4 mm^3
T/C [1, 5]: 5.76%
TGI [1, 5]: 113.19%
mean tumor volume [1, 5]: 37.5 mm^3
